Results reported in patent US9181275B2, “Mercaptoamidine derivatives and methods of use” (AbbVie Inc., priority 2011, dated 2015).
pKi: −log10 of the molar value.

Columns and labels:
[1] = target: native H3 receptors from rat cerebral cortices (Rattus norvegicus (Rat), UniProt Q9QYN8); test: H3 receptor competition binding with [3H]-N-α-methylhistamine, rat cerebral cortex membranes; conditions: [3H]-N-α-methylhistamine competition binding
[2] = tested on: locomotor stimulation induced by amphetamine; conditions: animals; Clapham J., et al. 1994; cited from earlier work

Sequence of native H3 receptors from rat cerebral cortices (Q9QYN8 whole entry): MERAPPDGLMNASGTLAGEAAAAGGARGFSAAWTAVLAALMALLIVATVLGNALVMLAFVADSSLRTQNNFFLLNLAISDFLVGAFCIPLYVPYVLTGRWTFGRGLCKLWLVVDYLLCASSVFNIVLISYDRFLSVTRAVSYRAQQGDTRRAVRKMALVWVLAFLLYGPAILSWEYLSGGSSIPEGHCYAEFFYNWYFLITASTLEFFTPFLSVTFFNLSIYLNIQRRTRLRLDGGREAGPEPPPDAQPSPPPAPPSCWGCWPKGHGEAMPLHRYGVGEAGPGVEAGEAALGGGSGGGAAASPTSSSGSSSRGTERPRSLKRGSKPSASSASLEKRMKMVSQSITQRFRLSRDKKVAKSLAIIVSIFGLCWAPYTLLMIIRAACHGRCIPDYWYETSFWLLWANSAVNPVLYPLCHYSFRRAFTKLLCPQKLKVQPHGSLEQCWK

Row | pKi [1] | rat cortex (pKi) [1] | SMILES | effect on amphetamine-induced locomotor stimulation [2]
1 | 10.70 | 10.7 | CC1=C(c2ccc(OCCCN3CCC[C@H]3C)cc2)SC2=NCc3ccccc3CN21 [Example 3, 3-methyl-2-(4-{3-[(2R)-2-methylpyrrolidin-1-yl]propoxy}phenyl)-5,10-dihydro[1,3]thiazolo[3,2-b][2,4]benzodiazepine] | –
2 | 10.30 | 10.3 | CC1=C(c2ccc(OCCCN3CCCCC3)cc2)SC2=NCc3ccccc3CN21 [Example 2, 3-methyl-2-[4-(3-piperidin-1-ylpropoxy)phenyl]-5,10-dihydro[1,3]thiazolo[3,2-b][2,4]benzodiazepine] | –
3 | – | – | S=C(NC1CCCCC1)N1CCC(c2cnc[nH]2)CC1 [thioperamide] | suppresses the locomotor stimulation induced by amphetamine
4 | 9.49 | 9.49 | CC1=C(c2ccc(OCCCN3CCOCC3)cc2)SC2=NCc3ccccc3CN21 [Example 4, 3-methyl-2-[4-(3-morpholin-4-ylpropoxy)phenyl]-5,10-dihydro[1,3]thiazolo[3,2-b][2,4]benzodiazepine] | –
